Assay results as given in patent US20150359794A1, “IMPAIRMENT OF THE LARGE RIBOSOMAL SUBUNIT PROTEIN RPL24 BY DEPLETION OR ACETYLATION” (Buck Institute for Research on Aging, priority 2014, published 2015).

System: ribosomal protein
Experiment: Acetyl-lysine western blot of ribopellets (ribosomal protein acetylation)
Type: cell-based, human
Conditions: SKBR3 cells
Procedure: Previous studies have shown that pan-inhibitors of class I and II histone deacetylases, like TSA, can rapidly destabilize a number of oncogenic transcripts including HER2 in a cycloheximide-dependent manner (FIG. 9). […] Thus, SKBR3 cells were treated with TSA to evaluate polysome protein acetylation and determine if, similar to RPL24 depletion, histone deacetylase inhibition can affect ribosome assembly dynamics. To detect early (2 h) ribosome or polysome acetylation following histone deacetylase inhibition treatment (1 μM TSA), SKBR3 polysomes were isolated using a discontinuous sucrose gradient as previously described. […] Mass spectrometry studies indicate that 15 ribosomal proteins, 11 large subunit proteins (RPL24 included) and 4 small subunit proteins, underwent at least a two-fold induction in acetylation following 2 h or 6 h TSA treatment (1 μM) (FIG. 4b, FIG. 10a-q).
Like TSA, the HDAC6 (class IIb)-selective inhibitors, Tubacin and Compound 101, as well as HDAC6 siRNA, all induce tubulin acetylation as expected as well as ribosomal protein acetylation, including the band that co-migrates with RPL24 (FIG. 4c,d, indicated by arrows). […] Thus, the tubulin acetylating effects of pan-histone deacetylase inhibition, known to be mediated by inhibition or knockdown of HDAC6, correspond to the observed ribosome and RPL24 acetylation responses induced by TSA.
Cells are lysed in RIPA buffer (10 mM Tris-HCL (pH 8.0), 1 mM EDTA, 0.5 mM EGTA, 1% triton X-100, 0.1% sodium deoxycholate, 0.1% SDS, 140 mM NaCl, 20 mM NaF, Complete EDTA-free protease inhibitor tablets (Roche Diagnostics Corp., Basel, Switzerland) and the phosphatase inhibitor cocktail PhosSTOP (Roche)), the latter two as indicated by the manufacturer's protocol. Equal amounts of protein are diluted in 2× sample buffer. Immunoblots on PVDF (Polyvinyldene Fluoride) membranes are blocked with nonfat milk in tris-buffered saline with 0.05% tween-20 (TBST). The following antibodies are incubated with membranes in 5% nonfat milk in TBST: RPL24 (Proteintech, Chicago, Ill.), Cyclin D1, Rack1, RPL4 (Santa Cruz Biotechnology, Santa Cruz, Calif.), NBS1, GAPDH (EMD Millipore Corporation, Chicago, Ill.), Survivin, β-tubulin, acetyl-lysine, eIF6, acetyl-H2B, H2B, (Cell Signaling Technology, Boston, Mass.), acetyl-tubulin, tubulin (Sigma Aldrich (St. Louis, Mo.))
Cells, plated at […] confluency, are treated as indicated. After treatment, cells are treated with 50 μg/ml cycloheximide for 15 minutes. Cells are lysed with a buffer containing 10 mM HEPES, 10 mM KCl, 75 mM NaCl, 10 mM MgCl2, 0.35% NP40, pH 7.9 supplemented with Complete EDTA-free protease inhibitor tablets, PhosSTOP phosphatase inhibitor tablets (Roche) per manufacturer's instructions, 50 μg/ml cycloheximide, SUPERase RNase inhibitors (Life Technologies) per manufacturer's instructions, 15 μM TSA, and 5 mM nicotinimide to inhibit histone deacetylases. Supernatants are collected as cytoplasmic preparations. Where indicated, pellets containing nuclei are resuspended in RIPA buffer (described above). The suspension is spun at 13,000 rpm for 5 min and supernatants are collected as nuclear preparations.
Ribosomes are subsequently isolated from cytoplasmic preparations as described previously. Briefly, lysates are layered on top of a 12% and 33% discontinuous sucrose gradient and spun at 38,000 rpm for 2 h. The resulting polysome pellet is then resuspended, stripped of RNA with acetic acid, and then pelleted with acetone. The pellet is then resuspended in 8 M urea, 2% CHAPS, and 25 mM dithiothreitol (DTT).
FIG. 4: Ribosomal protein acetylation is induced by histone deacetylase inhibition. (a-c) SKBR3 cells were treated with the indicated drugs for the indicated period of time. (d) SKBR3 cells were transfected with the indicated siRNAs and allowed to incubate for 72 hours. (a, c, d). The indicated western blots were performed in ribopellets, total cytoplasmic lysates, or nuclear extracts. […]

For CC(/C=C/C(=O)NO)=C\[C@@H](C)C(=O)c1ccc(N(C)C)cc1 [TSA, trichostatin-A], the “acetyl-lysine protein bands in polysomes, including band co-migrating with RPL24” value (1 μM TSA, 2 h, western blot) was “several TSA-induced bands”, the “total RPL24 levels” value (1 μM TSA, 2 h, western blot) was “not altered” and the “ribosomal protein acetylation, including the band that co-migrates with RPL24” value (western blot of ribopellets (FIG. 4c,d)) was “induce”.
